# Measurements as given in ChEMBL document CHEMBL1153196, “Development of an in silico model for human skin permeation based on a Franz cell skin permeability assay” (Bioorg Med Chem Lett, 2010).
# Test system: not listed separately
# Assay: Lipophilicity, log D of the compound
# Assay type: physicochemical
# Details: octanol/water
row,SMILES,logD
1,C[C@H](c1ccccc1)N(C)c1cc(C(F)(F)F)c(C#N)cn1,5.59
2,N#Cc1ccc(-c2ccccc2O)cc1C(F)(F)F,3.63
3,Cc1nn(-c2ccccc2)c(C)c1/C=N/N1CCN(Cc2ccccc2)CC1,3.65
4,Oc1cccc2ncccc12,1.46
5,CC(=O)Nc1cnc(-c2ccccc2)o1,1.22
6,Cc1cc(=O)n(-c2ccccc2)n1C [ANTIPYRINE],0.27
7,NC(=O)N1c2ccccc2C=Cc2ccccc21 [CARBAMAZEPINE],2.67
8,NS(=O)(=O)c1cc2c(cc1Cl)N=CNS2(=O)=O [CHLOROTHIAZIDE],-0.78
9,CN(C)CCCN1c2ccccc2Sc2ccc(Cl)cc21 [CHLORPROMAZINE],2.15
10,Cl.Clc1cccc(Cl)c1NC1=NCCN1 [CLONIDINE HYDROCHLORIDE],0.37
11,C[C@]12C[C@H](O)[C@H]3[C@@H](CCC4=CC(=O)CC[C@@]43C)[C@@H]1CC[C@@H]2C(=O)CO [CORTICOSTERONE],1.76
12,C[C@@H]1C[C@H]2[C@@H]3CCC4=CC(=O)C=C[C@]4(C)[C@@]3(F)[C@@H](O)C[C@]2(C)[C@H]1C(=O)CO [DESOXIMETASONE],2
13,C[C@@H]1C[C@H]2[C@@H]3CCC4=CC(=O)C=C[C@]4(C)[C@@]3(F)[C@@H](O)C[C@]2(C)[C@@]1(O)C(=O)CO [DEXAMETHASONE],1.87
14,CCOC(=O)[C@H](CCc1ccccc1)N[C@@H](C)C(=O)N1CCC[C@H]1C(=O)O.O=C(O)/C=C\C(=O)O [ENALAPRIL MALEATE],-0.55
15,CCCn1c(=O)[nH]c(=O)c2[nH]cnc21 [ENPROFYLLINE],0.27
16,C[C@]12CCC(=O)C=C1CC[C@@H]1[C@@H]2[C@@H](O)C[C@@]2(C)[C@H]1CC[C@]2(O)C(=O)CO [HYDROCORTISONE],1.43

row,SMILES,logD
1,COc1ccc2c(c1)c(CC(=O)O)c(C)n2C(=O)c1ccc(Cl)cc1 [INDOMETHACIN],0.59
2,CC(C)Cn1c(=O)n(C)c(=O)c2[nH]cnc21 [ISOBUTYLMETHYLXANTHINE],2
3,CC(C(=O)O)c1cccc(C(=O)c2ccccc2)c1 (centres undefined) [KETOPROFEN],0.56
4,COCCc1ccc(OCC(O)CNC(C)C)cc1 (centres undefined) [METOPROLOL],-0.81
5,Clc1ccc(COC(Cn2ccnc2)c2ccc(Cl)cc2Cl)c(Cl)c1 (centres undefined) [MICONAZOLE],5.55
6,Nc1cc(N2CCCCC2)nc(N)[n+]1[O-] [MINOXIDIL],-3.99
7,O=C(O)c1cccnc1Nc1cccc(C(F)(F)F)c1 [NIFLUMIC ACID],2.01
8,COc1ccc2[nH]c([S+]([O-])Cc3ncc(C)c(OC)c3C)nc2c1 (centres undefined) [OMEPRAZOLE],2.16
9,CN1C(C(=O)Nc2ccccn2)=C(O)c2ccccc2S1(=O)=O [PIROXICAM],-0.35
10,CC1(C)C(=O)N(c2ccc(C#N)c(C(F)(F)F)c2)C(=O)N1CCCCO [RU-58841],2.41
11,Nc1ccc(S(=O)(=O)Nc2ccccn2)cc1 [SULFAPYRIDINE],0.03
12,O=C(O)c1cc(/N=N/c2ccc(S(=O)(=O)Nc3ccccn3)cc2)ccc1O [SULFASALAZINE],0.05
13,CC(C)(C)NCC(O)c1cc(O)cc(O)c1 (centres undefined) [TERBUTALINE],-2.14
14,CC(C)(C)c1ccc(C(O)CCCN2CCC(C(O)(c3ccccc3)c3ccccc3)CC2)cc1 (centres undefined) [TERFENADINE],3.72
15,C[C@]12CC[C@H]3[C@@H](CCC4=CC(=O)CC[C@@]43C)[C@@H]1CC[C@@H]2O [TESTOSTERONE],3.48
16,CC(=O)CC(c1ccccc1)c1c(O)c2ccccc2oc1=O (centres undefined) [WARFARIN],1.43

# Test system: Zone of skin
# Assay: Permeability in human skin after 48 hrs by Franz cell permeability assay
# Details: not given
row,SMILES,log Pe
1,NC(=O)N1c2ccccc2C=Cc2ccccc21 [CARBAMAZEPINE],0.18
2,Cl.Clc1cccc(Cl)c1NC1=NCCN1 [CLONIDINE HYDROCHLORIDE],-0.68
3,CCOC(=O)[C@H](CCc1ccccc1)N[C@@H](C)C(=O)N1CCC[C@H]1C(=O)O.O=C(O)/C=C\C(=O)O [ENALAPRIL MALEATE],-1.72
4,NS(=O)(=O)c1cc2c(cc1Cl)NCNS2(=O)=O [HYDROCHLOROTHIAZIDE],-2
5,CC(=O)[C@H]1CC[C@H]2[C@@H]3CCC4=CC(=O)CC[C@]4(C)[C@H]3CC[C@]12C [PROGESTERONE],1.08
6,O=C(O)c1cc(/N=N/c2ccc(S(=O)(=O)Nc3ccccn3)cc2)ccc1O [SULFASALAZINE],-1.31
7,CCN1CCCC1CNC(=O)c1cc(S(N)(=O)=O)ccc1OC (centres undefined) [SULPIRIDE],-1.48
